System: dermal sheath (DS) cells
Test: Growth of DS cells using serum-free medium
Type: cell-based, human
Details: culturing in serum-free medium containing added PDGF
Protocol: A 12-well plate (BD) was coated with CELLStart™ (Life Technologies), and cryopreserved DS cells (from person scalp, DSC, passage number: 0) were suspended in 1 ml of serum-free medium and seeded on the plate at 4×10^4 cells per well. The serum-free media used were 1) HFDM-1(−) medium (Cell Science & Technology Institute), 2) HFDM-1(+) medium (Cell Science & Technology Institute), 3) PDGF-AA (10 ng/ml)-dissolved HFDM-1(−) medium and 4) PDGF-BB (10 ng/ml)-dissolved HFDM-1(−) medium. Culturing was conducted at 37° C. in the presence of 5% carbon dioxide gas. The cells were observed under microscopy on days 2, 5 and 10 (FIG. 1: 40×), and the number of cells per visual field was counted (FIG. 2).
A 12-well plate (BD) was coated with CELLStart™ (Life Technologies), and cryopreserved DS cells (from person scalp, DSC, passage number: 0) were suspended in 1 ml of serum-free medium and seeded on the plate at 4×10^4 cells per well. The serum-free media used were 1) StemProSFM CTS (sup+, Life Technologies), 2) PDGF-BB (10 ng/ml)-dissolved StemProSFM CTS (sup+, Life Technologies) and 3) Mosaic hMSC SF Culture Medium (sup+, BD) and 4) PDGF-BB (10 ng/ml)-dissolved Mosaic hMSC SF Culture Medium (sup+, BD). […] The cells were observed under microscopy on days 2 and 7 (FIG. 3: 40×), and the number of cells per visual field was counted (FIG. 4). […]

Q: How did the “growth of DS cells (number of cells per visual field)” value turn out when PDGF was run?
A: The value was “significantly grow DS cells”.

— patent publication US11427807B2, “Serum-free medium containing PDGF for DS cells” (Shiseido Company, Ltd., priority 2013, dated 2022)
